According to ChEMBL document CHEMBL5360534, “Synthetic α-glucosidase inhibitors as promising anti-diabetic agents: Recent developments and future challenges” (Eur J Med Chem, 2023):

Legend:
Alpha-glucosidase [1] = biological target: T1, Alpha-glucosidase (Saccharomyces cerevisiae S288c, UniProt P53341+P38158+P07265); assay: Inhibition of Saccharomyces cerevisiae alpha-glucosidase using p-nitrophenyl-alpha-D-glucopyranoside as substrate preincubated for 15 mins followed by substrate addition and measured after 20 mins by spectrophotometric analysis; format: protein assay
[2] = Inhibition of alpha-glucosidase (unknown origin); design: species or system Homo sapiens
Homo sapiens [3] = organism: Homo sapiens; assay: Potency index, ratio of acarbose IC50 to test compound IC50 for inhibition of alpha-glucosidase (unknown origin)
[4] = Inhibition of alpha-glucosidase (unknown origin) using p-nitrophenyl-alpha-D-glucopyranoside as substrate preincubated for 5 mins followed by substrate addition and measured after 5 mins by spectrophotometric analysis; design: species or system Homo sapiens
[5] = Inhibition of Saccharomyces cerevisiae alpha-glucosidase type I using p-nitrophenyl-alpha-D-glucopyranoside as substrate preincubated for 10 mins followed by substrate addition and measured after 20 mins by spectrophotometric analysis
Alpha-glucosidase [6] = biological target: T1, Alpha-glucosidase; assay: Inhibition of Saccharomyces cerevisiae alpha-glucosidase using p-nitrophenyl-alpha-D-glucopyranoside as substrate incubated for 30 mins by spectrophotometric analysis; format: protein assay
Alpha-glucosidase [7] = biological target: T1, Alpha-glucosidase; assay: Inhibition of Saccharomyces cerevisiae alpha-glucosidase by absorbance based microplate reader analysis; format: protein assay
[8] = Inhibition of alpha-glucosidase (unknown origin) assessed as reduction in starch digestion preincubated with alpha-amylase for 20 mins followed by alpha-glucosidase addition and measured after 30 mins by absorbance based analysis; design: species or system Homo sapiens
[9] = Inhibition of alpha-glucosidase (unknown origin) using p-NPG as substrate preincubated for 5 mins followed by substrate addition and measured after 30 mins by absorbance based analysis; design: species or system Homo sapiens
Alpha-glucosidase [10] = biological target: T1, Alpha-glucosidase; assay: Inhibition of Saccharomyces cerevisiae alpha-glucosidase using p-nitrophenyl-alpha-D-glucopyranoside as substrate preincubated for 5 mins followed by substrate addition and measured after 5 mins by absorbance based analysis; format: protein assay
Alpha-glucosidase [11] = biological target: T1, Alpha-glucosidase; assay: Inhibition of Saccharomyces cerevisiae alpha-glucosidase using p-nitrophenyl-alpha-D-glucopyranoside as substrate preincubated for 10 mins followed by substrate addition and measured after 30 mins by absorbance based analysis; format: protein assay
Alpha-glucosidase [12] = biological target: T1, Alpha-glucosidase; assay: Inhibition of Saccharomyces cerevisiae alpha-glucosidase; format: protein assay
[13] = biological target: Alpha-glucosidase (Saccharomyces cerevisiae S288c) (UniProt P53341+P38158+P07265); assay: Potency index, ratio of acarbose IC50 to test compound IC50 for inhibition of Saccharomyces cerevisiae alpha-glucosidase; format: protein assay
Alpha-glucosidase [14] = biological target: T1, Alpha-glucosidase; assay: Inhibition of Saccharomyces cerevisiae alpha-glucosidase using p-nitrophenyl-alpha-D-glucopyranoside as substrate preincubated for 10 mins followed by substrate addition and measured after 30 mins by absorbance based microplate reader analysis; format: protein assay
Alpha-glucosidase [15] = biological target: T1, Alpha-glucosidase; assay: Competitive inhibition of Saccharomyces cerevisiae alpha-glucosidase using pNPG as substrate assessed as inhibition constant preincubated for 10 mins followed by substrate addition and measured after 20 mins by spectrophotometric analysis; format: protein assay
Alpha-glucosidase [16] = biological target: T1, Alpha-glucosidase; assay: Inhibition of Saccharomyces cerevisiae alpha-glucosidase using p-nitrophenyl glucopyranoside as substrate preincubated for 10 mins followed by substrate addition and measured after 20 mins by spectrophotometric analysis; format: protein assay
Alpha-glucosidase [17] = biological target: T1, Alpha-glucosidase; assay: Inhibition of Saccharomyces cerevisiae alpha-glucosidase using pNPG as substrate preincubated for 10 mins followed by substrate addition and measured after 20 mins by spectrophotometric analysis; format: protein assay
Alpha-glucosidase [18] = biological target: T1, Alpha-glucosidase; assay: Inhibition of Saccharomyces cerevisiae alpha-glucosidase using pNPG as substrate by spectrophotometric analysis; format: protein assay
[19] = Inhibition of alpha-glucosidase (unknown origin) using p-nitrophenyl glucopyranoside as substrate preincubated for 10 mins followed by substrate addition and measured after 20 mins by spectrophotometric analysis; design: species or system Homo sapiens
[20] = Inhibition of alpha-glucosidase (unknown origin) using p-nitrophenyl-alpha-D-glucopyranoside as substrate preincubated for 15 mins followed by substrate addition and measured after 30 mins by multiplate spectrophotometric analysis; design: species or system Homo sapiens
[21] = Inhibition of alpha-glucosidase (unknown origin) using p-nitrophenyl-alpha-D-glucopyranoside as substrate preincubated for 15 mins followed by substrate addition and measured after 30 mins by spectrophotometric analysis; design: species or system Homo sapiens
[22] = Inhibition of alpha-glucosidase (unknown origin) using p-nitrophenyl-alpha-D-glucopyranoside as substrate preincubated for 10 mins followed by substrate addition and measured after 20 mins by spectrophotometric analysis; design: species or system Homo sapiens
[23] = Inhibition of alpha-glucosidase (unknown origin) using p-nitrophenylglucopyranoside as substrate preincubated for 10 mins followed by substrate addition and measured after 30 mins by absorbance based microplate reader analysis; design: species or system Homo sapiens
Homo sapiens [24] = organism: Homo sapiens; assay: Inhibition of alpha-glucosidase (unknown origin) using p-nitrophenylglucopyranoside as substrate at 100 microg/ml preincubated for 10 mins followed by substrate addition and measured by absorbance based analysis relative to control; details: dose 100.0 µg/ml
[25] = Inhibition of alpha-glucosidase (unknown origin) using p-nitrophenylglucopyranoside as substrate preincubated for 10 mins followed by substrate addition and measured by absorbance based analysis; design: species or system Homo sapiens
[26] = Inhibition of alpha-glucosidase (unknown origin) using p-nitrophenyl glucopyranoside as substrate preincubated for 10 mins followed by substrate addition and measured after 30 mins by absorbance based analysis; design: species or system Homo sapiens
[27] = Inhibition of alpha-glucosidase (unknown origin) using p-nitrophenyl-alpha-D-glucopyranoside as substrate preincubated for 15 mins followed by substrate addition and measured after 30 mins by absorbance based analysis; design: species or system Homo sapiens
[28] = Inhibition of alpha-glucosidase (unknown origin) using pNPG as substrate preincubated for 15 mins followed by substrate addition and measured after 30 mins by microplate reader based analysis; design: species or system Homo sapiens
[29] = Inhibition of alpha-glucosidase (unknown origin) using pNPG as substrate preincubated for 20 mins followed by substrate addition and measured after 1 hr by absorbance based analysis; design: species or system Homo sapiens
Alpha-glucosidase [30] = biological target: T1, Alpha-glucosidase; assay: Competitive inhibition of Saccharomyces cerevisiae alpha-glucosidase assessed as inhibition constant; format: protein assay
[31] = Inhibition of alpha-glucosidase (unknown origin) using pNPG as substrate preincubated for 15 mins followed by substrate addition and measured after 15 mins by spectrophotometric analysis; design: species or system Homo sapiens
[32] = Inhibition of alpha-glucosidase (unknown origin) using p-nitrophenyl-alpha-D-glucopyranoside as substrate preincubated for 15 mins followed by substrate addition and measured after 15 mins by absorbance based microplate reader analysis; design: species or system Homo sapiens

CN1CCN(c2ccc3[nH]c(-c4ccc(O)cc4)nc3c2)CC1
IC50 (Alpha-glucosidase [1]): 2.25 µM

CCOC(=O)CN1C(=O)/C(=N\NC(=O)c2ccccc2Cl)c2ccccc21
IC50 [2]: 13.2 µM
Ratio IC50 (Homo sapiens [3]): 2

O=[N+]([O-])c1ccccc1/C(CSc1nnc2c(n1)[nH]c1ccccc12)=N\c1nnc(-c2cccc(O)c2)s1
IC50 [2]: 2.5 µM
Ratio IC50 (Homo sapiens [3]): 15

O=S(=O)(NCCc1c[nH]c2ccccc12)c1cc(F)ccc1Cl
IC50 [4]: 1.6 µM

Clc1ccc(-n2c(-c3cn(-c4ccccc4)nc3-c3ccc(Br)cc3)nc(-c3ccccc3)c2-c2ccccc2)cc1
IC50 [5]: 25.2 µM

COc1cc2oc(=O)ccc2cc1-c1c(O)cc(O)c2c1O/C(=C\c1ccccc1)C2=O
IC50 (Alpha-glucosidase [6]): 3.55 µM

COc1ccc(/N=C2/NC(=O)/C(=C/c3cn(-c4ccccc4)nc3-c3ccc(OC)cc3)S2)cc1
IC50 (Alpha-glucosidase [7]): 9.9 µM

C=c1[nH]c(=O)s/c1=C/c1ccc(Oc2nc3ccccc3n2Cc2ccc(Cl)cc2)cc1
IC50 [8]: 0.54 µM

O=c1oc2ccccc2cc1-c1nn(C(Nc2ccccc2Oc2ccccc2NC(c2cccc(Br)c2)n2nc(-c3cc4ccccc4oc3=O)oc2=O)c2cccc(Br)c2)c(=O)o1 (stereo unspecified)
IC50 [9]: 0.07 µM

COc1ccc(/N=C2/NC(=O)/C(=C/c3cn(-c4ccccc4)nc3-c3ccc([N+](=O)[O-])cc3)S2)cc1
IC50 (Alpha-glucosidase [7]): 4.48 µM

Oc1ccc(/C=N/c2nnc(-c3ccc(Cl)cc3)s2)cc1
IC50 [4]: 2.3 µM

Oc1ccc(-c2nc3ncccc3[nH]2)cc1O
IC50 (Alpha-glucosidase [10]): 13.5 µM

O=c1oc2ccccc2cc1-c1nn(-c2ccccc2)cc1-c1nc(-c2ccccc2)c(-c2ccccc2)[nH]1
IC50 (Alpha-glucosidase [11]): 2.78 µM

O=c1cc(-c2ccc(OCc3cn(Cc4cc(Cl)ccc4Cl)nn3)cc2)oc2ccccc12
IC50 (Alpha-glucosidase [12]): 24.37 µM
Ratio IC50 [13]: 35

Cc1ccc(NC(=O)C(C)Sc2nnc(-c3ccc(Cl)cc3)o2)cc1C (stereo unspecified)
IC50 (Alpha-glucosidase [14]): 52.63 µM

CCOC(=O)c1c(SCc2cn(Cc3cccc([N+](=O)[O-])c3)nn2)nnc(-c2ccccc2)c1-c1ccccc1
Ki (Alpha-glucosidase [15]): 82 µM
IC50 (Alpha-glucosidase [16]): 85.6 µM

Cc1cc2nc(-c3ccc(C(=O)NNC(=S)Nc4ccc([N+](=O)[O-])cc4)cc3)[nH]c2cc1C
IC50 (Alpha-glucosidase [14]): 35.83 µM

Clc1ccc(C2=NOC(c3ccccc3)N2c2ccc(Cl)cc2)cc1 (stereo unspecified)
IC50 (Alpha-glucosidase [17]): 215 µM
Ki (Alpha-glucosidase [15]): 122 µM

Oc1ccc(-c2nc3cc(N4CCOCC4)ccc3[nH]2)cc1
IC50 (Alpha-glucosidase [1]): 3.4 µM

CCn1cc(C(=O)CC(c2ccc3ccccc3c2)C2C(=O)N(C)C(=O)N(C)C2=O)c2ccccc21 (stereo unspecified)
IC50 (Alpha-glucosidase [18]): 13.02 µM

COc1cc(-c2nc3ccccc3[nH]2)ccc1OCc1cn(CC(=O)Nc2cnc(-c3ccccc3)s2)nn1
IC50 [19]: 6.31 µM

CCCCCCSc1nc2ccccc2n1CC(=O)NN1C(=O)CSC1c1ccc(O)c(OC)c1 (stereo unspecified)
IC50 [20]: 10.2 µM

COc1ccc(-c2cn(C[C@@H](C)Oc3ccc(-c4ccc(C(F)(F)F)cc4)cc3OC)nn2)cc1
IC50 [21]: 14.2 µM

CC(=O)c1c(-c2ccccc2)cn(CC(C)C)c1C
IC50 [22]: 0.77 µM

CC(=O)Nc1ccc(-c2[nH]c3ccc(F)cc3c2-c2nc(-c3ccccc3)c(-c3ccccc3)n2-c2ccccc2)cc1
IC50 [23]: 8.37 µM

CCOC(=O)CN1C(=O)/C(=N\NC(=O)c2ccc(Cl)cc2)c2ccccc21
IC50 [2]: 14.5 µM
Ratio IC50 (Homo sapiens [3]): 2

Oc1ccccc1-c1nn(CNN2CCOCC2)c(=S)o1
inhibition (Homo sapiens [24]): 82%
IC50 [25]: 43.1 µM

CCCCCCSc1nc2ccccc2n1CC(=O)NN1C(=O)CSC1c1ccc(C=O)cc1 (stereo unspecified)
IC50 [20]: 5.69 µM

Nc1ccccc1-c1nn(CNN2CCOCC2)c(=S)o1
inhibition (Homo sapiens [24]): 85%
IC50 [25]: 53.6 µM

FC(F)(F)c1cccc(-c2nnc(-c3c[nH]c4ncccc34)o2)c1
IC50 [26]: 0.46 µM

O=C1Nc2cc(Br)ccc2/C1=N/Nc1nc(-c2ccc(Br)cc2)cs1
IC50 [27]: 20.8 µM

O=c1oc2ccc(Br)cc2cc1-c1nn(-c2ccccc2)cc1-c1nc(-c2ccccc2)c(-c2ccccc2)n1-c1ccc(Cl)cc1
IC50 (Alpha-glucosidase [11]): 2.53 µM

Oc1ccc(/C=N\c2nnc(-c3ccc(O)cc3)o2)cc1
IC50 [28]: 0.3 µM

O=C(N/N=C/c1ccc(O)c(O)c1)c1cc2ccccc2oc1=O
IC50 (Alpha-glucosidase [10]): 1.1 µM

COc1ccccc1N1C(=O)/C(=C\c2ccc(F)cc2)S/C1=N\NC(=O)c1cc2ccccc2oc1=O
IC50 [9]: 0.09 µM

COc1ccc(/C(CSc2nc3ccccc3[nH]2)=N/N=C/c2ccc(OC)cc2O)cc1
IC50 [4]: 2.2 µM

Cc1ccc(S(=O)(=O)n2cc(-c3oc4cc(Br)cc(Br)c4c(=O)c3O)c3ccccc32)cc1
IC50 [29]: 70.6 µM

O=C(/C=C\c1ccc(OCc2cn(Cc3ccc(O)cc3)nn2)cc1)NCCc1c[nH]c2ccccc12
IC50 (Alpha-glucosidase [12]): 65 µM
Ki (Alpha-glucosidase [30]): 64 µM

O=C1NC(=S)S/C1=C\c1ccc(Nc2nc3ccccc3o2)cc1
IC50 [8]: 9.48 µM

Nc1nnc(-c2ccc(O)cc2)s1
IC50 [4]: 2.7 µM

CCCCCCSc1nc2ccccc2n1CC(=O)NN1C(=O)CSC1c1ccc([N+](=O)[O-])cc1 (stereo unspecified)
IC50 [20]: 5.22 µM

O=C(CCCSc1nc2ccccc2s1)Nc1cccc2ccccc12
IC50 (Alpha-glucosidase [6]): 11 µM

N#Cc1ccc2[nH]c(-c3nnc(Nc4ccc(Cl)c(Cl)c4)s3)cc2c1
IC50 (Alpha-glucosidase [11]): 0.95 µM

O=c1c2ccccc2nc(SCc2cn(Cc3ccc(Br)cc3)nn2)n1CCc1ccccc1
IC50 (Alpha-glucosidase [18]): 181 µM
IC50 (Alpha-glucosidase [16]): 181 µM

Fc1ccc(-c2cn3c(Cc4n[nH]c(=S)n4-c4cccc5ccccc45)csc3n2)cc1
IC50 [2]: 4.54 µM
Ratio IC50 (Homo sapiens [3]): 47

O=[N+]([O-])c1ccc(-c2nn(-c3ccccc3)cc2-c2nc(-c3ccccc3)c(-c3ccccc3)n2-c2ccc(Br)cc2)cc1
IC50 [5]: 33.6 µM

O=c1cc(-c2ccc(OCc3cn(Cc4ccc(Cl)cc4)nn3)cc2)oc2ccccc12
IC50 (Alpha-glucosidase [12]): 24.77 µM
Ratio IC50 [13]: 35

O=C1Nc2ccc(Cl)cc2/C1=C\c1ccc(-c2nnc(-c3cc(O)cc(O)c3)o2)cc1
IC50 [28]: 1.25 µM

O=C(COc1ccc(C(c2c(O)c3ccccc3oc2=O)c2c(O)c3ccccc3oc2=O)cc1)Nc1ccc(Br)cc1
IC50 (Alpha-glucosidase [12]): 41.73 µM
Ki (Alpha-glucosidase [30]): 44 µM
Ratio IC50 [13]: 18

Cc1nn(-c2ccccc2)c(Cl)c1C1Nc2ccccc2C(=O)N1c1ccc(O)cc1 (stereo unspecified)
IC50 [31]: 2.6 µM

COc1cc2c(=O)c(-c3ccccc3)coc2cc1O/C(=C\N(C)C)C(=O)c1ccc(Cl)cc1
IC50 [32]: 890 µM

Cc1ccc2c(c1)/C(=N/Nc1nc(-c3ccc(O)cc3)cs1)C(=O)N2Cc1cccc(F)c1
IC50 [21]: 5.36 µM
